Assay results taken from BindingDB's records for doi:10.1016/j.bioorg.2015.05.009 (Peking University, 2015).
pIC50: −log10 of the molar value.

Each compound was assayed against Glycogen synthase kinase-3 beta (Homo sapiens, UniProt P49841) (assay: Kinase-Glo Luminescent Kinase Assay). Settings: pH 7.4.
Experimental: Briefly, recombinant human GSK3β (1 µM, 10 µL) was mixed with 10 µL of GSK3β substrate ([…]pSEDEEE, 100 µM), 19 µL of 2.5 × kinase buffer (50 mM Tris-HCl, pH 7.4, 25 mM MgCl2), 10 µL of 10 µM ATP, 1 µL of the indicated amount of chemicals in DMSO to a final volume of 50 µL. Control reaction without kinase was set up. The mixtures were incubated at 30 °C for 40 min. The enzymatic reaction was stopped with 50 µL of Kinase-Glo reagent. Glow-type luminescence was recorded after 10 min.

Chain of Glycogen synthase kinase-3 beta (P49841 whole entry): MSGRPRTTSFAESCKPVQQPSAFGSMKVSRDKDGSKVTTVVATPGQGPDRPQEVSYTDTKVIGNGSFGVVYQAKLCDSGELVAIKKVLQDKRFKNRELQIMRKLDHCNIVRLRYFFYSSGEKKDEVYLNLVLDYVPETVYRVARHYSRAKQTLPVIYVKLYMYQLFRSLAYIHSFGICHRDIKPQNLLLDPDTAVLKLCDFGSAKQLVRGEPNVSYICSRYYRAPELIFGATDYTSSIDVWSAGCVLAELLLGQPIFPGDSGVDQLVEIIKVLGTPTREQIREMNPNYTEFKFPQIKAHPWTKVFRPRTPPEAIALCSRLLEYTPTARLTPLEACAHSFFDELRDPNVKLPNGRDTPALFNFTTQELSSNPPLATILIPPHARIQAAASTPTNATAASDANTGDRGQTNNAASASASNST

Q: `COc1cc2c(C)cc3c(c2cc1OC)C(=O)NC3=O` [7,8-Dimethoxy-5-methyl-1H-benzo[e]isoindole-1,3(2H)-dione] was tested. Which pIC50 did it give?
A: 6.00

Q: `COc1cc2c(CNC3CCN(S(=O)(=O)c4ccccc4[N+](=O)[O-])CC3)cc3c(c2cc1OC)C(=O)NC3=O` [7,8-dimethoxy-5-((1-(2-nitrophenylsulfonyl)piperidin-4-ylamino)methyl)-1H-benzo[e]isoindole-1,3(2H)-dione (8f)] was tested. Which pIC50 did it give?
A: 6.28

Q: `COc1cc2c(CNC3CCN(S(=O)(=O)c4ccc(C(F)(F)F)cc4)CC3)cc3c(c2cc1OC)C(=O)NC3=O` [7,8-dimethoxy-5-((1-(4-(trifluoromethyl)phenylsulfonyl)piperidin-4-ylamino)methyl)-1Hbenzo[e]isoindole-1,3 (2H)-dione (8e)] was tested. Which pIC50 did it give?
A: 6.28

Q: How did the pIC50 turn out when `COc1ccc(S(=O)(=O)N2CCC(NCc3cc4c(c5cc(OC)c(OC)cc35)C(=O)NC4=O)CC2)cc1` [7,8-dimethoxy-5-((1-(4-methoxyphenylsulfonyl)piperidin-4-ylamino)methyl)-1H-benzo[e]isoindole-1,3(2H)-dione (8b)] was run?
A: 5.58

Q: With `COc1cc2c(CNC3CCN(S(=O)(=O)c4ccc([N+](=O)[O-])cc4)CC3)cc3c(c2cc1OC)C(=O)NC3=O` [7,8-dimethoxy-5-((1-(4-nitrophenylsulfonyl)piperidin-4-ylamino)methyl)-1H-benzo[e]isoindole-1,3(2H)-dione (8c)] as the compound, how does the pIC50 read?
A: 6.51

Q: With `COc1cc2c(CNC3CCN(S(C)(=O)=O)CC3)cc3c(c2cc1OC)C(=O)NC3=O` [7,8-dimethoxy-5-((1-(methylsulfonyl)piperidin-4-ylamino)methyl)-1H-benzo[e]isoindole-1,3(2H)-dione (8d)] as the compound, how does the pIC50 read?
A: 6.44

Q: How did the pIC50 turn out when `COc1cc2c(CNC3CCN(S(=O)(=O)c4ccccc4)CC3)cc3c(c2cc1OC)C(=O)NC3=O` [7,8-dimethoxy-5-((1-(phenylsulfonyl)piperidin-4-ylamino)methyl)-1H-benzo[e]isoindole-1,3(2H)-dione (8g)] was run?
A: 5.99

Q: With `COc1cc2c(CNC3CCN(S(=O)(=O)c4cccc5cccnc45)CC3)cc3c(c2cc1OC)C(=O)NC3=O` [7,8-dimethoxy-5-((1-(quinolin-8-ylsulfonyl)piperidin-4-ylamino)methyl)-1H-benzo[e]isoindole-1,3(2H)-dione (8h)] as the compound, how does the pIC50 read?
A: 5.82

Q: With `COc1cc2c(CNC3CCN(S(=O)(=O)c4cccs4)CC3)cc3c(c2cc1OC)C(=O)NC3=O` [7,8-dimethoxy-5-((1-(thiophen-2-ylsulfonyl)piperidin-4-ylamino)methyl)-1H-benzo[e]isoindole-1,3(2H)-dione (8i)] as the compound, how does the pIC50 read?
A: 6.27

Q: With `COc1cc2c(CNC3CCN(S(=O)(=O)c4ccc(C)cc4)CC3)cc3c(c2cc1OC)C(=O)NC3=O` [7,8-dimethoxy-5-({[1-(4-methylbenzenesulfonyl)piperidin-4-yl]amino}methyl)-1H,2H,3H-benzo[e]isoindole-1,3-dione (8a)] as the compound, how does the pIC50 read?
A: 5.43
